Laboratory results published in patent publication US9982232B2, “Methods of generating cells with multilineage potential” (NEWSOUTH INNOVATIONS PTY LIMITED, priority 2012, dated 2018).

Assays:
Type in all cases: cell-based, mouse
primary osteoblasts [1] = test: Inhibitor studies: PDGF-AB/AZA mediated oCFU-F production from primary osteoblasts; conditions: inhibitor in reprogramming cocktail from day 1 for 12 days
Experimental: (§1) In vitro differentiated bone, cartilage, fat and long-bone derived osteocytes were first cultured in MSC medium (αMEM+20% FCS+P/S/G) with or without 10 μM 5′Azacitidine (Tocris Biosciences) and with or without cytokine (50 or 100 ng/ml Pdgf-AA or Pdgf-BB or Pdgf-AB, 10 ng/ml bFgf, 20 ng/ml HGF, 10 ng/ml Igf-1 and 10 ng/ml Vegf for 2 days and then cultured in MSC media with or without cytokine for 10 days. In order to investigate the reprogramming cell signalling pathways, inhibitors were added to the reprogramming cocktail from day 1 and kept for 12 days. Media was refreshed every 3-4 days. At the end of day 12 cells were harvested for downstream analysis.
Active Pdgf isoforms stimulate cells by binding to and activating signalling by dimerization of two distinct, but structurally related, membrane bound receptor tyrosine kinases; Pdgf receptor-α (Pdgfrα) and Pdgf receptor-β (Pdgfrβ). Pdgf-BB has a greater binding affinity for Pdgfrβ but can also bind Pdgfrα whereas Pdgf-AA interacts only with Pdgfrα. Therefore, Pdgf-AA induces αα-receptor homodimers, PDGF-AB, both αα-receptor homodimers and αβ-receptor heterodimers and Pdgf-BB, all three dimeric combinations of α and β receptors, however in vivo binding of PDGF-AB is not known. Primary osteoblasts express Pdgfrβ but not Pdgfrα. […]

[2] = test system: in vitro differentiated bone, cartilage and fat cells; test: CFU-F colony formation and replating of in vitro derived bone, cartilage and fat cells cultured with cytokines with and without AZA; conditions: for colony forming potential (CFU-F): cells maintained 12 days in MSC culture medium with supplement
Experimental: as §1
CFU-Fs, oCFU-Fs, cCFU-Fs and aCFU-Fs were expanded in bulk culture after plating 10,000 cells per T75 flask. Resulting cells were split every 8 days. CFU-F and oCFU-F colonies were isolated individually using cloning cylinders (‘O” rings) (Sigma-Aldrich) and CFU-F clones (micro, small and large) and Osteocyte oCFU-F clones (micro, small and large) were pooled individually as micro (MC), small (SC) and large (LC) colonies and cultured first in T25 flask for 12 days and then from passage 2 onwards in T75 flask for 12 days. Cumulative cells numbers were calculated and plotted (log 10 scale). Micro, small and large colony's 2ry, 3ry and 4ry colony formation was evaluated by plating single cell from individual colonies into 96 well plates. In order to investigate differences in proliferative capacity of reprogrammed cells compared with primary CFU-Fs, cells were plated on RTCA resistor plate 96 (Roche Diagnostics) (200 cells/well) and recorded using XCELLigence (ACEA Biosciences) every 15 mins for 8 days.
To test whether lineage committed mesodermal cells could be induced to proliferate, bone marrow CFU-Fs (Colony Forming Units-Fibroblast) were harvested from mice, and following in vitro differentiation into bone, cartilage and fat cells, cultured them with different cytokines with and without AZA.
To assess and compare clonal vigour of replated cells, the inventors have developed a system to classify CFU-Fs based on cell number and size (Chong et al., 2011).

primary osteoblasts [3] = test: Surface Pdgf receptor expression and signalling protein levels in primary osteoblasts; conditions: within 48 hours of exposure
Experimental: Cell pellets were lysed in non-denaturing lysis buffer containing Complete Protease inhibitor cocktail (Roche) and PhosStop (Roche), followed by brief sonication using Bioruptor (Diagenode). The supernatant of the whole-cell extracts were loaded onto NuPage 4-12% Bis-Tri Gel (Life Technology) and transferred using iBlot Gel Transfer Kit (Nitrocellulose, Life Technology) according to the manufacturers instructions. Densitometry was performed using GE ImageQuant TL Software Version 7.0.
Active Pdgf isoforms stimulate cells by binding to and activating signalling by dimerization of two distinct, but structurally related, membrane bound receptor tyrosine kinases; Pdgf receptor-α (Pdgfrα) and Pdgf receptor-β (Pdgfrβ). Pdgf-BB has a greater binding affinity for Pdgfrβ but can also bind Pdgfrα whereas Pdgf-AA interacts only with Pdgfrα. Therefore, Pdgf-AA induces αα-receptor homodimers, PDGF-AB, both αα-receptor homodimers and αβ-receptor heterodimers and Pdgf-BB, all three dimeric combinations of α and β receptors, however in vivo binding of PDGF-AB is not known. Primary osteoblasts express Pdgfrβ but not Pdgfrα. […] These included expression of Pdgf receptors α and β, and components of the Jak/Stat and Jnk/c-Jun pathways but not the PI3kinase pathway. […]

[4] = test system: osteocytes from long bones of Pdgfrα-H2B:GFP mice; test: Reprogramming of primary osteocytes from Pdgfrα-H2B:GFP mice (CFU-F assays, flow cytometry)
Experimental: Osteocytes were isolated from long bones of either wild-type C57BL/6 or Pdgfra-nGFP mice. The mice were sacrificed at 8-16 weeks of age. Tibias and femurs were removed, cleaned of soft tissues and transferred to ice cold PBS. Bone marrow was flushed out with 2% FCS in PBS and bones were crushed and cut into ˜200 μm-400 μm pieces using a mortar and pestle and scissors. Bone fragments were transferred into 5 ml of collagenase (Type II, 2 mg/ml) in PBS and placed on a water bath shaker at 37° C. for 30 min twice. Supernatant was collected and collagenase was inactivated with 10 ml of 2% FCS and 5 mM EDTA in PBS. Cells were collected through 40 μm cell strainer. Cells were stained for Seal, CD51, CD31, Lin/CD45 and Pdgfrα. These cells were FACS sorted for Sca1^−/CD31^−/Pdgfra-nGFP^−/Pdgfra-Protein^−/CD51^+ osteocytes. FACS sorted osteocytes and bone fragments were cultured independently in complete culture medium (DMEM+P/S/G+100 ug/ml of ascorbate+10% FCS). Cells were cultured at 37° C. and 5% CO2 in the incubator for 8-10 days. […]
To evaluate how primary lineage committed cells respond to PDGF-AB/AZA, the inventors harvested Lin^−, CD45^−/Sca1^−/CD31^−/Pdgfrα-nGFP^−/Pdgfrα^−/CD51^+ osteocytes from long bones of Pdgfrα-H2B:GFP mice. […] The emergence of CFU-F capacity in reprogrammed osteocytes was evaluated by replating cells for CFU-F assays from the end of day 1 onwards (FIG. 2A).

| Molecule | number of CFU-Fs generated at first passage ([2]; bone, cartilage and fat cells) | numbers of large colonies at first passage ([2]; bone, cartilage and fat cells) | colony forming potential (CFU-F) [2] | other results |
| --- | --- | --- | --- | --- |
| COc1cc2ncc(-c3ccccc3)nc2cc1OC [AG1296] | – | – | – | PDGF-AB/AZA mediated oCFU-F production from primary osteoblasts in presence of inhibitor (primary osteoblasts [1]): abolished |
| Nc1ncn([C@@H]2O[C@H](CO)[C@@H](O)[C@H]2O)c(=O)n1 [AZA, Azacitidine, reference compound] | also generated CFU-Fs at first passage | – | – | serial passaging / replating of colonies ([2]; bone, cartilage and fat cells): could not be replated at all; surface Pdgfrα protein expression on primary osteoblasts (primary osteoblasts [3]): Pdgfrα protein expression was evident |
| Igf-1: insulin-like growth factor-1, tested with or without AZA | substantially lower than with PDGF-AB | few large colonies | either no or limited CFU-F potential | – |
| Vegf | substantially lower than with PDGF-AB | few large colonies | either no or limited CFU-F potential | – |
| bFgf: basic fibroblast growth factor, tested with or without AZA (protein, UniProt P15655 10-154, looked up) Fibroblast growth factor 2: PALPEDGGAAFPPGHFKDPKRLYCKNGGFFLRIHPDGRVDGVREKSDPHVKLQLQAEERGVVSIKGVCANRYLAMKEDGRLLASKCVTEECFFFERLESNNYNTYRSRKYSSWYVALKRTGQYKLGSKTGPGQKAILFLPMSAKS | substantially lower than with PDGF-AB | few large colonies | either no or limited CFU-F potential | – |
| Hgf: hepatocyte growth factor, tested with or without AZA (protein, UniProt Q08048 33-495; Q08048 496-728, looked up) Hepatocyte growth factor …: QKKRRNTLHEFKKSAKTTLTKEDPLLKIKTKKVNSADECANRCIRNRGFTFTCKAFVFDKSRKRCYWYPFNSMSSGVKKGFGHEFDLYENKDYIRNCIIGKGGSYKGTVSITKSGIKCQPWNSMIPHEHSFLPSSYRGKDLQENYCRNPRGEEGGPWCFTSNPEVRYEVCDIPQCSEVECMTCNGESYRGPMDHTESGKTCQRWDQQTPHRHKFLPERYPDKGFDDNYCRNPDGKPRPWCYTLDPDTPWEYCAIKTCAHSAVNETDVPMETTECIQGQGEGYRGTSNTIWNGIPCQRWDSQYPHKHDITPENFKCKDLRENYCRNPDGAESPWCFTTDPNIRVGYCSQIPKCDVSSGQDCYRGNGKNYMGNLSKTRSGLTCSMWDKNMEDLHRHIFWEPDASKLNKNYCRNPDDDAHGPWCYTGNPLIPWDYCPISRCEGDTTPTIVNLDHPVISCAKTKQLR Hepatocyte growth factor beta …: VVNGIPTQTTVGWMVSLKYRNKHICGGSLIKESWVLTARQCFPARNKDLKDYEAWLGIHDVHERGEEKRKQILNISQLVYGPEGSDLVLLKLARPAILDNFVSTIDLPSYGCTIPEKTTCSIYGWGYTGLINADGLLRVAHLYIMGNEKCSQHHQGKVTLNESELCAGAEKIGSGPCEGDYGGPLICEQHKMRMVLGVIVPGRGCAIPNRPGIFVRVAYYAKWIHKVILTYKL | substantially lower than with PDGF-AB | few large colonies | either no or limited CFU-F potential | – |
| Pdgf-BB: platelet derived growth factor BB, tested with/without AZA (protein, UniProt P31240 82-190, looked up, homodimer, platelet derived growth factor BB, tested with/without AZA) Platelet-derived growth …: SLGSLAAAEPAVIAECKTRTEVFQISRNLIDRTNANFLVWPPCVEVQRCSGCCNNRNVQCRASQVQMRPVQVRKIEIVRKKPIFKKATVTLEDHLACKCETIVTPRPVT | – | – | – | passaging of CFU-F colonies from treated osteocytes ([4]; 12 days treatment): could not be passaged; CFU-F capacity of treated osteocytes ([4]; up to 12 days treatment): very limited CFU-F capacity |
